{"source": "patent US20100062477A1", "about": "“METHODS OF ISOLATING AND PROPAGATING STEM CELLS FROM BENIGN TUMORS” (CEDARS-SINAI MEDICAL CENTER, priority 2006, published 2010)", "system": "Pituitary tumor stem cells and adherent daughter cells", "assay": "WST-1 proliferation assay of resistance to chemotherapeutic treatment", "type": "cell-based, human", "conditions": "50 μM carboplatin and 12.5 μM VP16 for 48 h; stem cells compared with adherent cells", "experimental": "Pituitary tumor stem cells and adherent daughter cells were also tested for the resistance to chemotherapeutic treatment. Cells were treated with 50 μM carboplatin and 12.5 μM VP16 for 48 h and the toxicity was assessed by WST-1 proliferation assay."}
{"smiles": "COc1cc([C@@H]2c3cc4c(cc3[C@@H](O[C@@H]3O[C@@H]5CO[C@@H](C)O[C@H]5[C@H](O)[C@H]3O)[C@H]3COC(=O)[C@H]23)OCO4)cc(OC)c1O", "note": "[VP16]", "values": [{"measurement": "toxicity assessed by WST-1 proliferation assay (resistance of pituitary tumor stem cells vs adherent daughter cells)", "value": "significantly more resistant than the adherent cells"}]}
{"smiles": "N.N.O=C([O-])C1(C(=O)[O-])CCC1.[Pt+2]", "note": "[carboplatin]", "values": [{"measurement": "toxicity assessed by WST-1 proliferation assay (resistance of pituitary tumor stem cells vs adherent daughter cells)", "value": "significantly more resistant than the adherent cells"}]}
